The record followed here is ChEMBL document CHEMBL3045150, “Synthesis and structureactivity relationship studies on novel 8-amino-3-[2-(4-fluorophenoxy)ethyl]-1,3-diazaspiro[4.5]decane-2,4-dione derivatives as anticonvulsant agents” (Med Chem Res, 2013).

Series [1] concerns Mus musculus. Kind of series: Anticonvulsant activity in albino Mus musculus (mouse) assessed as protection against maximal electric shock-induced seizures at 100 mg/kg, ip administered 30 min prior to maximal electric shock-challenge measured up to 4 hr relative to control. The class given is functional. The settings on record: route intraperitoneal.
For series [2], the system named is Mus musculus. Kind of series: Neurotoxicity in albino Mus musculus (mouse) assessed as motor impairment at 100 mg/kg, po measured at 2 hr by rotarod test. The class given is toxicity, organism-based. More on the design: dose 100 mg/kg, route oral. The settings on record: in vivo.
Series [3] concerns Mus musculus. As to the kind of experiment: Neurotoxicity in albino Mus musculus (mouse) assessed as motor impairment at 100 mg/kg, po measured at 4 hr by rotarod test. The class given is toxicity, organism-based. Set-up: dose 100 mg/kg, route oral. The settings on record: in vivo.

Turning to `O=C(Cc1ccccc1)NC1CCC2(CC1)NC(=O)N(CCOc1ccc(F)cc1)C2=O` (stereo not given), the Activity in the series with Mus musculus [1] is recorded as 47.21%; in the series on Mus musculus [2], “Non-toxic”; in the series on Mus musculus [3], “Non-toxic”.

For the compound `Cc1ccc(S(=O)(=O)NC2CCC3(CC2)NC(=O)N(CCOc2ccc(F)cc2)C3=O)cc1` (stereo not given), the Activity in the series on Mus musculus [1] is 1.14%; in the series on Mus musculus [2] it was “Non-toxic”; in the series on Mus musculus [3], “Non-toxic”.

For the compound `Cc1ccc(S(=O)(=O)NC2CCC3(CC2)NC(=O)N(CCOc2ccc(F)cc2)C3=O)cc1C` (stereo not given), the Activity with Mus musculus [1] was 42.61%; with Mus musculus [2], “Non-toxic”; in the series on Mus musculus [3], “Non-toxic”.

Consider `Cc1cccc(S(=O)(=O)NC2CCC3(CC2)NC(=O)N(CCOc2ccc(F)cc2)C3=O)c1` (stereo not given), for which the results for the Activity with Mus musculus [1], in the series on Mus musculus [2] and in the series on Mus musculus [3] were 4.55%, “Non-toxic” and “Non-toxic”, respectively.

For the compound `O=C1NC2(CCC(NS(=O)(=O)c3cccc(Cl)c3)CC2)C(=O)N1CCOc1ccc(F)cc1` (stereo not given), the Activity was 4.55% in the series on Mus musculus [1], “Toxic” in the series with Mus musculus [2] and “Toxic” in the series with Mus musculus [3].

`O=C(NC1CCC2(CC1)NC(=O)N(CCOc1ccc(F)cc1)C2=O)c1ccccc1F` (stereo not given): the Activity in the series with Mus musculus [1] is reported as 48.12%; with Mus musculus [2], “Toxic”; with Mus musculus [3], “Toxic”.

`Cc1cccc(C(=O)NC2CCC3(CC2)NC(=O)N(CCOc2ccc(F)cc2)C3=O)c1` (stereo not given): the values for the Activity with Mus musculus [1], in the series with Mus musculus [2] and in the series with Mus musculus [3] were 78.62%, “Non-toxic” and “Non-toxic”, respectively.

On to `O=C(NC1CCC2(CC1)NC(=O)N(CCOc1ccc(F)cc1)C2=O)Oc1ccccc1` (stereo not given), for which the Activity is 56.89% in the series on Mus musculus [1], “Non-toxic” in the series on Mus musculus [2] and “Non-toxic” in the series on Mus musculus [3].

Take `CC(C)(C)c1ccc(C(=O)NC2CCC3(CC2)NC(=O)N(CCOc2ccc(F)cc2)C3=O)cc1` (stereo not given): the Activity is on record as 48.15% in the series with Mus musculus [1], “Non-toxic” in the series on Mus musculus [2] and “Non-toxic” in the series with Mus musculus [3].

Take `Cc1cc(C)cc(S(=O)(=O)NC2CCC3(CC2)NC(=O)N(CCOc2ccc(F)cc2)C3=O)c1` (stereo not given): the figures for the Activity in the series on Mus musculus [1], in the series on Mus musculus [2] and in the series on Mus musculus [3] were 43.12%, “Non-toxic” and “Non-toxic”, respectively.

As for `Cc1cc(F)ccc1S(=O)(=O)NC1CCC2(CC1)NC(=O)N(CCOc1ccc(F)cc1)C2=O` (stereo not given), the Activity is on record as 3.25% with Mus musculus [1], “Non-toxic” in the series with Mus musculus [2] and “Non-toxic” in the series on Mus musculus [3].

For `O=C1NC2(CCC(NS(=O)(=O)c3cccc(F)c3)CC2)C(=O)N1CCOc1ccc(F)cc1` (stereo not given), the Activity is recorded as 6.5% in the series on Mus musculus [1], “Non-toxic” in the series with Mus musculus [2] and “Non-toxic” in the series on Mus musculus [3].

As to `Cc1ccc(C)c(S(=O)(=O)NC2CCC3(CC2)NC(=O)N(CCOc2ccc(F)cc2)C3=O)c1` (stereo not given), the Activity with Mus musculus [1] is 43.95%; in the series on Mus musculus [2], “Non-toxic”; with Mus musculus [3] it was “Non-toxic”.

`O=C(NC1CCC2(CC1)NC(=O)N(CCOc1ccc(F)cc1)C2=O)OCc1ccccc1Cl` (stereo not given): the Activity with Mus musculus [1] is 48.82%; with Mus musculus [2] it was “Non-toxic”; in the series with Mus musculus [3], “Non-toxic”.

In the case of `O=C(NC1CCC2(CC1)NC(=O)N(CCOc1ccc(F)cc1)C2=O)c1ccccc1Cl` (stereo not given), the figures for the Activity in the series with Mus musculus [1], in the series with Mus musculus [2] and with Mus musculus [3] were 49.41%, “Non-toxic” and “Non-toxic”, respectively.

Regarding `O=C(NC1CCC2(CC1)NC(=O)N(CCOc1ccc(F)cc1)C2=O)c1cccc(Cl)c1` (stereo not given), the Activity in the series on Mus musculus [1] was 58.61%; in the series on Mus musculus [2], “Toxic”; in the series with Mus musculus [3], “Toxic”.

For the compound `O=C1NC2(CCC(NS(=O)(=O)c3cccc(Br)c3)CC2)C(=O)N1CCOc1ccc(F)cc1` (stereo not given), the Activity was 7.41% in the series on Mus musculus [1], “Non-toxic” with Mus musculus [2] and “Non-toxic” in the series on Mus musculus [3].

As to `O=C(NC1CCC2(CC1)NC(=O)N(CCOc1ccc(F)cc1)C2=O)c1ccc(F)cc1` (stereo not given), the values for the Activity in the series with Mus musculus [1], with Mus musculus [2] and in the series with Mus musculus [3] were 57.94%, “Toxic” and “Toxic”, respectively.

For `CCc1ccc(S(=O)(=O)NC2CCC3(CC2)NC(=O)N(CCOc2ccc(F)cc2)C3=O)cc1` (stereo not given), the Activity in the series on Mus musculus [1] is given as 1.23%; with Mus musculus [2], “Non-toxic”; with Mus musculus [3] it was “Non-toxic”.

Regarding `O=C(NC1CCC2(CC1)NC(=O)N(CCOc1ccc(F)cc1)C2=O)c1ccccc1C(F)(F)F` (stereo not given), the Activity is given as 79.32% in the series on Mus musculus [1], “Non-toxic” in the series on Mus musculus [2] and “Non-toxic” in the series with Mus musculus [3].

Turning to `O=C(NC1CCC2(CC1)NC(=O)N(CCOc1ccc(F)cc1)C2=O)c1ccccc1` (stereo not given), the Activity with Mus musculus [1] is given as 55.78%; in the series on Mus musculus [2], “Non-toxic”; in the series on Mus musculus [3] it was “Non-toxic”.

For the compound `O=C(NC1CCC2(CC1)NC(=O)N(CCOc1ccc(F)cc1)C2=O)c1cccc(F)c1` (stereo not given), the Activity in the series on Mus musculus [1] was 58.02%; in the series with Mus musculus [2], “Toxic”; in the series on Mus musculus [3], “Toxic”.

On to `COc1ccc(S(=O)(=O)NC2CCC3(CC2)NC(=O)N(CCOc2ccc(F)cc2)C3=O)cc1` (stereo not given), for which the Activity in the series on Mus musculus [1] is reported as 9.23%; in the series on Mus musculus [2], “Non-toxic”; in the series on Mus musculus [3], “Non-toxic”.

As to `N#Cc1ccccc1S(=O)(=O)NC1CCC2(CC1)NC(=O)N(CCOc1ccc(F)cc1)C2=O` (stereo not given), the Activity in the series with Mus musculus [1] is reported as 4.51%; with Mus musculus [2], “Non-toxic”; in the series with Mus musculus [3], “Non-toxic”.

As to `Cc1ccc(C(=O)NC2CCC3(CC2)NC(=O)N(CCOc2ccc(F)cc2)C3=O)cc1` (stereo not given), the Activity in the series with Mus musculus [1] is 79.58%; in the series on Mus musculus [2], “Non-toxic”; with Mus musculus [3], “Non-toxic”.

Regarding `O=C1NC2(CCC(NS(=O)(=O)c3ccccc3F)CC2)C(=O)N1CCOc1ccc(F)cc1` (stereo not given), the Activity in the series with Mus musculus [1] was 4.94%; in the series on Mus musculus [2] it was “Non-toxic”; in the series with Mus musculus [3], “Non-toxic”.

Regarding `Cc1ccccc1S(=O)(=O)NC1CCC2(CC1)NC(=O)N(CCOc1ccc(F)cc1)C2=O` (stereo not given), the Activity is listed as 13% with Mus musculus [1], “Non-toxic” in the series on Mus musculus [2] and “Non-toxic” with Mus musculus [3].

Regarding `O=C(NC1CCC2(CC1)NC(=O)N(CCOc1ccc(F)cc1)C2=O)c1ccc(Cl)cc1` (stereo not given), the Activity in the series with Mus musculus [1] is 49.83%; with Mus musculus [2], “Toxic”; with Mus musculus [3], “Toxic”.

Regarding `O=C(NC1CCC2(CC1)NC(=O)N(CCOc1ccc(F)cc1)C2=O)Oc1ccc(Cl)cc1` (stereo not given), the Activity is reported as 59.29% with Mus musculus [1], “Non-toxic” with Mus musculus [2] and “Non-toxic” with Mus musculus [3].

Take `Cc1ccc(CS(=O)(=O)NC2CCC3(CC2)NC(=O)N(CCOc2ccc(F)cc2)C3=O)cc1` (stereo not given): the figures for the Activity in the series on Mus musculus [1], with Mus musculus [2] and in the series with Mus musculus [3] were 12.6%, “Toxic” and “Toxic”, respectively.
